In the NIST ThermoML archive (doi:10.1021/je700096m):

Settings: Liquid

CCCCCl [1-chlorobutane]
mass density [kg/m3]
Settings	288.15 K	298.15 K	308.15 K	318.15 K
100 kPa	891.8	880.6	870	859.1
2000 kPa	893.6	882.6	872.1	861.5
4000 kPa	–	–	–	863.8
4100 kPa	895.6	884.9	874.4	–
6100 kPa	897.5	886.8	876.5	866.3
8100 kPa	899.4	888.7	878.6	868.7
10100 kPa	901.3	890.9	880.8	870.9
12100 kPa	903	892.8	882.9	873.1
14100 kPa	904.9	–	–	875.1
14200 kPa	–	894.7	884.9	–
16200 kPa	–	896.5	886.8	877.2
16300 kPa	906.7	–	–	–
18300 kPa	–	898.5	888.8	–
18400 kPa	908.5	–	–	879.3
20200 kPa	910.3	–	890.6	881.2
20400 kPa	–	900.2	–	–

CCCCCCCl [1-chlorohexane]
Settings	mass density [kg/m3]
288.15 K, 100 kPa	882.7
288.15 K, 2000 kPa	884.4
288.15 K, 4100 kPa	886
288.15 K, 5900 kPa	887.5
288.15 K, 8100 kPa	889.2
288.15 K, 10100 kPa	890.7
288.15 K, 12200 kPa	892.3
288.15 K, 14200 kPa	893.8
288.15 K, 16200 kPa	895.2
288.15 K, 18200 kPa	896.7
288.15 K, 20200 kPa	898.3
298.15 K, 100 kPa	873.1
298.15 K, 2000 kPa	874.8
298.15 K, 4100 kPa	876.6
298.15 K, 6100 kPa	878.3
298.15 K, 8100 kPa	879.9
298.15 K, 10200 kPa	881.7
298.15 K, 12100 kPa	883.3
298.15 K, 14200 kPa	885
298.15 K, 16400 kPa	886.6
298.15 K, 18400 kPa	888.1
298.15 K, 20200 kPa	889.6
308.15 K, 100 kPa	864.3
308.15 K, 2000 kPa	866.1
308.15 K, 4100 kPa	868
308.15 K, 6100 kPa	869.7
308.15 K, 8100 kPa	871.5
308.15 K, 10200 kPa	873.3
308.15 K, 12100 kPa	875
308.15 K, 14200 kPa	876.7
308.15 K, 16200 kPa	878.3
308.15 K, 18300 kPa	879.9
308.15 K, 20200 kPa	881.5
318.15 K, 100 kPa	855.1
318.15 K, 2000 kPa	857
318.15 K, 4000 kPa	858.9
318.15 K, 6100 kPa	860.9
318.15 K, 8100 kPa	862.7
318.15 K, 10100 kPa	864.6
318.15 K, 11900 kPa	866.1
318.15 K, 14100 kPa	868.1
318.15 K, 16100 kPa	869.9
318.15 K, 18000 kPa	871.4
318.15 K, 20000 kPa	872.8

CCCCCCCCCl [1-chlorooctane]
Settings	mass density [kg/m3]
288.15 K, 100 kPa	877.3
288.15 K, 2000 kPa	878.8
288.15 K, 4000 kPa	880.2
288.15 K, 6000 kPa	881.6
288.15 K, 8000 kPa	883
288.15 K, 10000 kPa	884.4
288.15 K, 11900 kPa	885.8
288.15 K, 13900 kPa	887.1
288.15 K, 16000 kPa	888.4
288.15 K, 18000 kPa	889.7
288.15 K, 20100 kPa	891.2
298.15 K, 100 kPa	868.8
298.15 K, 2000 kPa	870.2
298.15 K, 4100 kPa	871.8
298.15 K, 6100 kPa	873.3
298.15 K, 8100 kPa	874.8
298.15 K, 10000 kPa	876.2
298.15 K, 12100 kPa	877.8
298.15 K, 14200 kPa	879.3
298.15 K, 16300 kPa	880.7
298.15 K, 18300 kPa	882.1
298.15 K, 20200 kPa	883.4
308.15 K, 100 kPa	861.4
308.15 K, 2000 kPa	862.8
308.15 K, 4000 kPa	864.4
308.15 K, 6000 kPa	865.9
308.15 K, 7900 kPa	867.5
308.15 K, 10100 kPa	869.1
308.15 K, 12000 kPa	870.5
308.15 K, 14000 kPa	872
308.15 K, 15900 kPa	873.3
308.15 K, 18000 kPa	874.8
308.15 K, 20000 kPa	876.5
318.15 K, 100 kPa	852.9
318.15 K, 2000 kPa	854.5
318.15 K, 4000 kPa	856.2
318.15 K, 6000 kPa	857.9
318.15 K, 8000 kPa	859.5
318.15 K, 10000 kPa	861.2
318.15 K, 12000 kPa	862.8
318.15 K, 14000 kPa	864.3
318.15 K, 16000 kPa	865.8
318.15 K, 18000 kPa	867.3
318.15 K, 20100 kPa	868.9

CC(=O)N(C)C [N,N-dimethylethanamide]
Settings	mass density [kg/m3]
288.15 K, 100 kPa	945.7
288.15 K, 2000 kPa	946.7
288.15 K, 4000 kPa	947.8
288.15 K, 6000 kPa	949
288.15 K, 8100 kPa	950.1
288.15 K, 9900 kPa	951.1
288.15 K, 12000 kPa	952.2
288.15 K, 13900 kPa	953.2
288.15 K, 16000 kPa	954.3
288.15 K, 18100 kPa	955.4
288.15 K, 20000 kPa	956.5
298.15 K, 100 kPa	937
298.15 K, 2000 kPa	938.1
298.15 K, 4100 kPa	939.4
298.15 K, 6100 kPa	940.6
298.15 K, 8100 kPa	941.8
298.15 K, 10000 kPa	943
298.15 K, 12100 kPa	944.1
298.15 K, 14200 kPa	945.3
298.15 K, 16300 kPa	946.4
298.15 K, 18400 kPa	947.5
298.15 K, 20100 kPa	948.6
308.15 K, 100 kPa	927.9
308.15 K, 2000 kPa	929.1
308.15 K, 4100 kPa	930.4
308.15 K, 6100 kPa	931.6
308.15 K, 8100 kPa	932.8
308.15 K, 10100 kPa	934
308.15 K, 12100 kPa	935.3
308.15 K, 14200 kPa	936.5
308.15 K, 16300 kPa	937.6
308.15 K, 18200 kPa	938.7
308.15 K, 20200 kPa	939.9
318.15 K, 100 kPa	918.7
318.15 K, 2000 kPa	919.8
318.15 K, 4000 kPa	921.2
318.15 K, 6000 kPa	922.5
318.15 K, 8000 kPa	923.8
318.15 K, 9900 kPa	925
318.15 K, 12000 kPa	926.3
318.15 K, 14000 kPa	927.5
318.15 K, 16000 kPa	928.7
318.15 K, 18100 kPa	930
318.15 K, 20000 kPa	931.3

CN(C)C=O [dimethylformamide]
Settings	mass density [kg/m3]
288.15 K, 100 kPa	953.4
288.15 K, 2100 kPa	954.5
288.15 K, 4000 kPa	955.6
288.15 K, 6100 kPa	956.8
288.15 K, 7900 kPa	957.8
288.15 K, 9900 kPa	958.9
288.15 K, 12100 kPa	960.1
288.15 K, 14000 kPa	961.2
288.15 K, 16000 kPa	962.2
288.15 K, 18000 kPa	963.3
288.15 K, 19800 kPa	964.3
298.15 K, 100 kPa	943.8
298.15 K, 2000 kPa	945
298.15 K, 4100 kPa	946.2
298.15 K, 6100 kPa	947.4
298.15 K, 8100 kPa	948.6
298.15 K, 10100 kPa	949.8
298.15 K, 12100 kPa	951
298.15 K, 14100 kPa	952.1
298.15 K, 16300 kPa	953.3
298.15 K, 18300 kPa	954.3
298.15 K, 20100 kPa	955.5
308.15 K, 100 kPa	935
308.15 K, 2000 kPa	936.2
308.15 K, 4100 kPa	937.6
308.15 K, 6100 kPa	938.9
308.15 K, 8100 kPa	940
308.15 K, 10100 kPa	941.2
308.15 K, 12100 kPa	942.5
308.15 K, 14300 kPa	943.7
308.15 K, 16300 kPa	944.9
308.15 K, 18300 kPa	946
308.15 K, 20200 kPa	947
318.15 K, 100 kPa	925.5
318.15 K, 2100 kPa	926.9
318.15 K, 4000 kPa	928.3
318.15 K, 6000 kPa	929.6
318.15 K, 7900 kPa	930.8
318.15 K, 10200 kPa	932.2
318.15 K, 12000 kPa	933.4
318.15 K, 14000 kPa	934.5
318.15 K, 16000 kPa	935.8
318.15 K, 18000 kPa	937
318.15 K, 20200 kPa	938.1
